Assay results published in PubChem BioAssay AID1508612.

Test: passive permeability, PAMPA, ADME assay (AID 1508612)
Conditions: pH 7.4, 30.0 min, 50.0 µM
In the case of `CN[C@@H](C)C(=O)N[C@@H]1C(=O)N(Cc2c(C)ccc3ccccc23)c2ccc(C#N)cc2N(C(C)=O)[C@H]1C`, the Papp is reported as 551 ×10⁻⁶ cm/s.
Work on `COc1ccc2[nH]c(S(=O)Cc3ncc(C)c(OC)c3C)nc2n1` (stereo not drawn) yielded a Papp of 183 ×10⁻⁶ cm/s.
For `COC(=O)c1ccc(O)c2ncc(N3CCN(C)CC3)cc12`, the Papp was 845 ×10⁻⁶ cm/s.
In the case of `CCn1cc(CNC(=O)c2cc(-c3ccc(C)cc3)nc3ccc(Br)cc23)c(C)n1`, the Papp is reported as 5.55 ×10⁻⁶ cm/s.
`CN(C)CC(=O)NC1CCCc2c1cnn2-c1ccc(F)cc1F` (stereo not drawn) showed a Papp of 412 ×10⁻⁶ cm/s.
With `Fc1cccc(CNc2nc(-c3ccccc3C(F)(F)F)nc3ccccc23)c1` the Papp was 315 ×10⁻⁶ cm/s.
`Cc1ccc(S(=O)(=O)Nc2cnccc2C(=O)Nc2nc(-c3ccco3)cs2)cc1` gave a Papp of 297 ×10⁻⁶ cm/s.
`O=C(O)c1ccc(N2C(=O)/C(=C/c3ccc(-c4ccc([N+](=O)[O-])cc4)o3)C=C2c2ccccc2)cc1` gave a Papp of 34.3 ×10⁻⁶ cm/s.
`CNC(=O)C1CCN(C(=O)c2ccc(-c3ncc4cnc(-c5ccccc5)cn34)cc2)CC1` gave a Papp of 15.4 ×10⁻⁶ cm/s.
Compound `COc1cc2ncnc(Nc3ccc(Oc4ccccc4)cc3)c2cc1OC` has a Papp of over 1000 ×10⁻⁶ cm/s.
With `Nc1nc(N)c2c(OCC3CCN(Cc4ccccc4F)CC3)cccc2n1` the Papp was 938 ×10⁻⁶ cm/s.
In the case of `O=C(O)c1ccnc2cc(C(OCC3CCC(F)(F)CC3)c3ccccc3Cl)[nH]c12` (stereo not drawn), the Papp is reported as 75.6 ×10⁻⁶ cm/s.
In the case of `O=C(CCCc1ccc2cccnc2n1)NCc1cc(-c2ccc(F)c(C(F)(F)F)c2)no1`, the Papp is reported as over 1000 ×10⁻⁶ cm/s.
`Cc1nc2ccc(NC(=O)c3cc(S(=O)(=O)N(C)c4ccccc4)ccc3Cl)cc2s1` gave a Papp of 70 ×10⁻⁶ cm/s.
`Cc1cnc(-c2ccccc2C(C)C)nc1NCC1CCN(c2cccnc2)CC1` gave a Papp of over 1000 ×10⁻⁶ cm/s.
Work on `COc1cc(C(=O)NC2CCCc3c2[nH]c2ccccc32)cc(OC)c1OC` (stereo not drawn) yielded a Papp of 189 ×10⁻⁶ cm/s.
Compound `COc1ccccc1Nc1ccnc(N2CCN(C(=O)c3ccccc3Cl)CC2)n1` has a Papp of 173 ×10⁻⁶ cm/s.
In the case of `O=C(NCC1CCN(Cc2cccc(Cl)c2)CC1)Nc1ccc(F)c(Cl)c1`, the Papp is reported as over 1000 ×10⁻⁶ cm/s.
Work on `COc1cc(-c2nc(Nc3ccc(F)c(F)c3)c3ccccc3n2)cc(OC)n1` yielded a Papp of 26.5 ×10⁻⁶ cm/s.
With `O=C(Nc1ccc(Cl)c(S(=O)(=O)N2CCOCC2)c1)c1ccccc1` the Papp was 728 ×10⁻⁶ cm/s.
For `O=C(Cc1cccs1)NCc1nnc2ccc(-c3ccccc3)nn12`, the Papp was 226 ×10⁻⁶ cm/s.
Compound `CCCc1ccc(-c2csc(NC(=O)c3ccncc3NS(=O)(=O)c3ccc(C)cc3)n2)cc1` has a Papp of 755 ×10⁻⁶ cm/s.
For `CCCCNC(=O)CN1CCN(c2ncc(NC(=O)c3ccc(Cl)cc3)cc2C(=O)O)CC1`, the Papp was under 1 ×10⁻⁶ cm/s.
`COC(=O)C1=C(C)NC(=O)CC1C(=O)Nc1ccc(Cl)cc1` (stereo not drawn) gave a Papp of 126 ×10⁻⁶ cm/s.
Compound `CC(=O)Nc1cc(-c2nc(Nc3ccc(F)c(F)c3)c3ccccc3n2)ccn1` has a Papp of 438 ×10⁻⁶ cm/s.
Compound `COc1cccc(CNc2ccc(S(=O)(=O)Nc3ccc(C)nc3)cc2)c1O` has a Papp of 973 ×10⁻⁶ cm/s.
`Cc1cc(C)nc(N2CCCC(C(=O)NCCc3ccc(F)cc3)C2)n1` (stereo not drawn) showed a Papp of 62.2 ×10⁻⁶ cm/s.
Work on `Cc1ccccc1C(=O)N1CCc2cc(-n3cc(NC(=O)Cc4ccccc4)cn3)ccc21` yielded a Papp of 82.6 ×10⁻⁶ cm/s.
In the case of `COc1cc(C2c3c(oc4cc(C)c(C)cc4c3=O)C(=O)N2CCCN2CCOCC2)ccc1O` (stereo not drawn), the Papp is reported as 118 ×10⁻⁶ cm/s.
Work on `CCCc1cc(C)[nH]c(=O)c1CNC(=O)c1cc(-c2ccnc(N3CCN(C)CC3)c2)cc2c1cnn2C(C)C` yielded a Papp of 782 ×10⁻⁶ cm/s.
`COc1ccc(Nc2cc(C)nc(-n3nc(C)cc3C)n2)cc1Cl` gave a Papp of over 1000 ×10⁻⁶ cm/s.
`COc1ccc(-n2nc(C3CCCN(CC4CCCCC4)C3)[nH]c2=O)cc1` (stereo not drawn) gave a Papp of over 1000 ×10⁻⁶ cm/s.
Work on `COc1ccc2cc1Oc1ccc(cc1)C[C@@H]1c3c(cc(OC)c4c3Oc3cc5c(cc3O4)CCN[C@H]5C2)CCN1C` yielded a Papp of 217 ×10⁻⁶ cm/s.
For `S=c1[nH]c2ccccc2n1CCc1ccccc1`, the Papp was 126 ×10⁻⁶ cm/s.
`COc1ncccc1-c1cc2c(ccn2CC2CCN([S+](C)(=O)[O-])CC2)c(N2CCOCC2)n1` showed a Papp of over 1000 ×10⁻⁶ cm/s.
`CN(Cc1cnc2nc(N)nc(N)c2n1)c1ccc(C(=O)N[C@@H](CCC(=O)O)C(=O)O)cc1` gave a Papp of 5.39 ×10⁻⁶ cm/s.
`CCCN(C(=O)c1sc2nc3n(c(=O)c2c1C)CCCC3)c1ccccc1C` gave a Papp of over 1000 ×10⁻⁶ cm/s.
In the case of `Cc1ccc(S(=O)(=O)Nc2cnccc2C(=O)Nc2nc(-c3ccncc3)cs2)cc1`, the Papp is reported as 74.4 ×10⁻⁶ cm/s.
Compound `CCNC(=O)Nc1ncc(-c2cc(-c3c(C)cc(OC)cc3C)nc(-c3cnccn3)n2)s1` has a Papp of 762 ×10⁻⁶ cm/s.
With `Cc1ccccc1CSc1nc2ncc(Br)cc2[nH]1` the Papp was 497 ×10⁻⁶ cm/s.
For `CC(=O)Nc1ccc(NC(=O)C(NS(=O)(=O)c2ccc(Br)s2)c2ccccc2)cc1` (stereo not drawn), the Papp was 224 ×10⁻⁶ cm/s.
In the case of `CCN(CCCOc1ccc2c(Nc3cc(CC(=O)Nc4cccc(F)c4)[nH]n3)ncnc2c1)CCOP(=O)(O)O`, the Papp is reported as under 1 ×10⁻⁶ cm/s.
`Clc1cccc(-c2ccc(-c3nnc(CCCc4ccc5cccnc5n4)o3)cc2)c1` showed a Papp of over 1000 ×10⁻⁶ cm/s.
For `CN(C(=O)CNC(=O)c1ccccc1OCC(=O)Nc1ccc(I)cc1)c1ccccc1`, the Papp was over 1000 ×10⁻⁶ cm/s.
`COc1cccc(NC(=S)N2CCN(c3cccc(C(F)(F)F)c3)CC2)n1` showed a Papp of 735 ×10⁻⁶ cm/s.
`COc1cc(C(=O)N2CCN(c3cc(Cl)ccc3Cl)CC2)cc(OC)c1OC` showed a Papp of over 1000 ×10⁻⁶ cm/s.
For `COc1ccc(NC(=O)c2[nH]c(C)c(C(C)=O)c2C)cc1S(=O)(=O)N1CCCCC1`, the Papp was 757 ×10⁻⁶ cm/s.
`O=C(Nc1nc(-c2ccccc2)cs1)c1ccncc1NS(=O)(=O)c1cccs1` showed a Papp of 83.2 ×10⁻⁶ cm/s.
`COC[C@@H]1CN(C(=O)c2nn(C)c3ccccc23)C[C@H]1c1nc(C)no1` gave a Papp of 165 ×10⁻⁶ cm/s.
With `Cc1cc(S(=O)(=O)Nc2cnccc2C(=O)Nc2nc(-c3ccccc3)cs2)c(C)o1` the Papp was 768 ×10⁻⁶ cm/s.
Work on `C[C@]12CC[C@@H]3[C@H](CCC4=CC(=O)CC[C@]43C)[C@]1(O)CC[C@@]2(O)C(=O)CO` yielded a Papp of 30.8 ×10⁻⁶ cm/s.
`Fc1cc(Nc2nc(-c3ccncc3)nc3ccccc23)ccc1-c1cccc(C(F)(F)F)c1` gave a Papp of 16.8 ×10⁻⁶ cm/s.
`c1ccc(-c2cc(Nc3nc(-c4ccncc4)nc4ccccc34)n[nH]2)cc1` gave a Papp of 39.4 ×10⁻⁶ cm/s.
For `COc1ccc2c(c1)/C(=C/c1cnc[nH]1)C(=O)N2`, the Papp was 220 ×10⁻⁶ cm/s.
`CC(C)c1cc(C(=O)N2CC[C@@H](NC(=O)C3CC3)C2)n[nH]1` gave a Papp of 1.3 ×10⁻⁶ cm/s.
For `Cc1nc2nc(NC(=O)c3ccc(C(C)(C)C)cc3)[nH]n2c(=O)c1Cl`, the Papp was 8.91 ×10⁻⁶ cm/s.
For `Cc1noc(C)c1S(=O)(=O)Nc1cnccc1C(=O)Nc1nc(-c2ccccc2)cs1`, the Papp was 339 ×10⁻⁶ cm/s.
`Cc1cccc(C(=O)N2CCc3cc(-c4nc(NC(=O)Cc5ccc6c(c5)OCO6)sc4C)ccc32)c1` gave a Papp of 59 ×10⁻⁶ cm/s.
Compound `CCC(CC)c1cc([C@H]2CN3CC[C@H]2C[C@@H]3CNC(=O)Cc2cccs2)nc(-c2ccncc2)n1` has a Papp of 448 ×10⁻⁶ cm/s.
`CC(=O)Nc1ccc(-c2csc(N3CCC(C(N)=O)CC3)n2)cc1` gave a Papp of under 1 ×10⁻⁶ cm/s.
In the case of `Oc1ccc(C(=S)N2CCN(c3cccc(Cl)c3)CC2)cc1`, the Papp is reported as 677 ×10⁻⁶ cm/s.
With `Cc1cc(C)nc(NC(=S)N2CCN(c3nccc(C(F)(F)F)n3)CC2)c1` the Papp was over 1000 ×10⁻⁶ cm/s.
`COc1cc(-c2cc3c(nc2-c2ccccc2)nc(C(=O)NC2CCN(C)CC2)n3C)ccn1` gave a Papp of over 1000 ×10⁻⁶ cm/s.
`CN1CCCN(C(c2ccccc2)c2ccc(Cl)cc2)CC1` (stereo not drawn) showed a Papp of 652 ×10⁻⁶ cm/s.
`CCNC(=O)c1noc(-c2cc(C(C)C)c(O)cc2O)c1-c1ccc(CN2CCOCC2)cc1` showed a Papp of 335 ×10⁻⁶ cm/s.
In the case of `COC(=O)c1ccc(Oc2nc3c(c(=O)n(C)c(=O)n3C)n2CCC(C)C)cc1`, the Papp is reported as over 1000 ×10⁻⁶ cm/s.
`COc1ccc(CNC(=O)Cn2nc3c(cc2=O)CCCC3)cc1` gave a Papp of 40.6 ×10⁻⁶ cm/s.
In the case of `N#Cc1ccccc1S(=O)(=O)Nc1cnccc1C(=O)Nc1nc(-c2ccccc2)cs1`, the Papp is reported as 61.8 ×10⁻⁶ cm/s.
In the case of `Cc1c(-c2nsc(NC(=O)c3cccc(Cl)c3)n2)nnn1-c1ccccc1C(F)(F)F`, the Papp is reported as 706 ×10⁻⁶ cm/s.
`CC(=O)Nc1ncc(S(=O)(=O)N2CCOCC2)s1` showed a Papp of 37.9 ×10⁻⁶ cm/s.
`C[C@@H]1CC(=O)Nc2cccc(-c3cnn(C(C)(C)C)c3)c2N1` gave a Papp of 56.5 ×10⁻⁶ cm/s.
Compound `Cc1ccc(C(=O)Nc2ccc3oc(-c4cccnc4)nc3c2)cc1[N+](=O)[O-]` has a Papp of 82.5 ×10⁻⁶ cm/s.
Work on `CN(C)c1ccc2cc(C(=O)N[C@@H](CCCN=C(N)CCl)C(=O)NCc3ccccc3)ccc2c1` yielded a Papp of under 1 ×10⁻⁶ cm/s.
